According to patent publication US9387204B2, “Fused bicyclic imidazoles” (BAYER INTELLECTUAL PROPERTY GmbH, priority 2007, dated 2016):

Assays:
phospho-GSK3 (Ser9) = assay: Cellular pGSK3 assay (phospho-GSK3 ELISA); assay type: cell-based; details: Homo sapiens, MCF7 cells, 48 h, read-out: Cellular pGSK3 pathway assay
Experimental: In order to study the cellular activity of the compounds according to the present invention, an ELISA-based assay has been established for the phosphorylated protein glycogen synthetase kinase 3 (GSK3). The assay is based on a solid phase sandwich ELISA that detects endogenous levels of phosphorylated GSK3 using a phospho-GSK3 (Ser9) specific antibody (BioSource International, Inc.; Catalog #KHO0461). After incubation with cell lysates, the coated antibody captures the phosphorylated GSK3 protein. Following extensive washing, GSK3 polyclonal antibody is added to detect the captured phospho-GSK3 protein. Secondary antibody (anti-rabbit IgG-HRP) is then used to recognize the bound detection antibody. After the second incubation and washing to remove all the excess anti-rabbit IgG-HRP, a substrate solution is added, which is acted upon by the bound enzyme to produce color. The intensity of this colored product is directly proportional to the concentration of GSK-3β [pS9] present in the original specimen.
MCF7 cells (ATCC HTB-22) were seeded into 96 well fate bottom plates at a density of 10000 cells/well. […] Cells were harvested and lysed in cell extraction buffer (10 mM Tris, pH 7.4, 100 mM NaCl, 1 mM EDTA, 1 mM EGTA, 1 mM NaF, 20 mM Na4P2O7, 2 mM Na3VO4, 1% Triton X-100, 10 vol % glycerol, 0.1 vol % SDS, 0.5 vol % deoxycholate, 1 mM phenylmethylsulfonylfluorid (PMSF)). The lysate were centrifuged for 10 min. at 4° C. and the supernatant were transferred to a new tube. 50 μl of sample diluent (standard diluent buffer, Biosource) were added and 100 μl of cell lysate transferred into the tube and vortexed. 100 μl of each diluted cell lysate were added to the appropriate ELISA well plate and incubated for 3 h at room temperature. The plates were washed 4 times with 1× wash buffer (Biosource). 50 μl of detection antibody (GSK3 (Ser9) detection antibody; BioSource) were added to each well and incubated for 30 min. at room temperature. The washing procedure was repeated between each step. 100 μl of HRP-linked secondary antibody (anti-mouse IgG HRP-linked antibody) were added to each well and incubated for 30 min. at room temperature. 100 μl of TMB substrate (0.05 vol % 3,3′,5,5′ tetramethylbenzidine, 0.1 vol % hydrogen peroxide, complex polypeptides in a buffered solution; Biosource) were added to each well and incubated for 30 min. at room temperature. Finally 100 μl of Stop solution (0.05 vol % α and β unsaturated carbonyl compound) were added to each well and the plate were shaked gently for a few seconds. The absorbance was measured at ? 450 nm (Wallac Victor2; Perkin Elmer, USA) within 30 min. after adding the stop solution.
The analysis of the data was performed using a statistical program (Excel; Microsoft, USA) and the IC50 of pGSK3 inhibition was determined.

phospho-Akt (Ser473) = assay: Cellular PI3K/Akt pathway assay (phospho-Akt ELISA); assay type: cell-based; details: Homo sapiens; MCF7 cells, β-Heregulin stimulated, 48 h, phospho-Akt1 (Ser473) ELISA
Experimental: In order to study the cellular activity of the compounds according to the present invention, an Enzyme Linked Immunosorbent Assay (ELISA)-based assay has been used specific phospho-AKT. The assay is based on a Sandwich ELISA kit (PathScan™ Phospho-Akt1 (Ser473); Cell Signaling, USA; #7160).
The ELISA Kit detects endogenous levels of phosphorylated Akt protein. A phospho-Akt (Ser473) antibody (Cell Signaling, USA; #9271) has been coated onto the microwells. After incubation with cell lysates, the coated antibody captures the phosphorylated Akt protein. Following extensive washing, Akt1 monoclonal antibody (Cell Signaling, USA; #2967) is added to detect the captured phospho-Akt1 protein. HRP-linked anti-mouse antibody (HRP: horseradish peroxidase; Cell Signaling, USA; #7076) is then used to recognize the bound detection antibody. HRP substrate (=3,3′,5,5′-tetramethylbenzidine (TMB); Cell Signaling, USA; #7160) is added to develop colour. The magnitude of optical density for this developed color is proportional to the quantity of phosphorylated Akt protein. MCF7 cells (ATCC HTB-22) are seeded into 96 well fate bottom plates at a density of 10000 cells/well. 24 hours after seeding, the cells are serum starved using low-serum medium (IMEM media including 0.1% charcoal treated FCS (FCS: fetal calf serum)). […] To stimulate Akt phosphorylation, β-Heregulin (20 ng/ml β-HRG) is added in parallel to the compounds. Wells containing unstimulated control cells (no β-Heregulin stimulation) are incubated with or without the diluted compound. Wells containing untreated control cells (no compound) are filled with medium containing 0.5% v:v DMSO and are or are not stimulated with β-Heregulin.
Cells are harvested and lysed with brief sonification in 1× cell lysis buffer (20 mM Tris (pH7.5), 150 mM NaCl, 1 mM ethylene diaminetetraacetate (EDTA), 1 mM ethylene glycolbis(2-aminoethyl)-N,N,N′,N′-tetraacetic acid (EGTA), 1 vol % Triton X-100, 2.5 mM sodium pyrophosphate, 1 mM β-glycerolphosphate, 1 mM Na3VO4, 1 μg/ml leupeptin). The lysate is centrifuged for 10 min. at 4° C. and the supernatant is transferred to a new tube. 100 μl of sample diluent (0.1 vol % Tween-20, 0.1 vol % sodium azide in phosphate buffered saline (PBS)) are added to a microcentrifuge tube and 100 μl of cell lysate are transferred into the tube and vortexed. 100 μl of each diluted cell lysate are added to the appropriate ELISA well, and incubated overnight at 4° C. The plates are washed 4 times with 1× wash buffer (1 vol % tween-20, 0.33 vol % thymol, in PBS). Next 100 μl of detection antibody (Akt1 (2H10) monoclonal detection antibody; Cell Signaling, USA; #2967) are added to each well and incubation continued for 1 h at 37° C. The washing procedure is repeated between each step. 100 μl of secondary antibody (anti-mouse IgG HRP-linked antibody; Cell Signaling, USA; #7076) are added to each well and incubated for 30 min. at 37° C. Than, 100 μl of TMB substrate (0.05% 3,3′,5,5′ tetramethylbenzidine, 0.1% hydrogen peroxide, complex polypeptides in a buffered solution; Cell Signaling, USA; #7160) are added to each well and incubated for 30 min. at 25° C. Finally 100 μl of STOP solution (0.05 vol % α and β unsaturated carbonyl compound) are added to each well and the plate are shaked gently. The absorbance is measured at ? 450 nm (Wallac Victor2; Perkin Elmer, USA) within 30 min. after adding the STOP solution. The analysis of the data is performed using a statistical program (Excel; Microsoft, USA). Preferred compounds show an inhibitory activity towards Akt phosphorylation below 10 μM.

A549 cells = assay: Cellular proliferation/cytotoxicity assay (Alamar Blue), A549 cells; details: Homo sapiens, A549, 72 h, read-out: Anti-proliferative/Cytotoxic activity (A549 cells)
Experimental: The anti-proliferative activity of the compounds as described herein, is evaluated using the OvCAR3, HCT116 and A549 cell lines and the Alamar Blue (Resazurin) cell viability assay (O'Brien et al. Eur J Biochem 267, 5421-5426, 2000). Resazurin is reduced to the fluorescent resorufin by cellular dehydrogenase activity, correlating with viable, proliferating cells. Test compounds are dissolved as 10 mM solutions in DMSO and subsequently diluted. Cells like HCT116 or A549 cells were seeded into 96 well flat bottom plates at a density of 10000 cells/well (OvCAR3 cells), 1000 cells/well (HCT116 cells) or 2000 cells/well (A549 cells) in a volume of 200 μl/well. 24 hours after seeding, 1 μl each of the compound dilutions are added into each well of the 96 well plates. Each compound dilution is tested as at least as duplicates. Wells containing untreated control cells were filled with 200 μl DMEM (Dulbecco's Modified Eagle Medium) containing 0.5 vol % v:v DMSO. The cells are then incubated with the substances for 72 h at 37° C. in a humidified atmosphere containing 5 vol % CO2. To determine the viability of the cells, 20 μl of a Resazurin solution (90 mg/l) are added. After 4 h incubation at 37° C., the fluorescence is measured by extinction at ? =544 nm and an emission of ? =590 nm (Wallac Victor2; Perkin Elmer, USA). For the calculation of the cell viability, the emission value from untreated cells is set as 100% viability and the fluorescence intensity of treated cells are set in relation to the values of untreated cells. Viabilities are expressed as % values. The corresponding IC50 values of the compounds for cytotoxic activity are determined from the concentration-effect curves by means of non-linear regression. The analysis of the data is performed using a biostatistical program (Graph Pad Prism, USA).

OvCAR3 cells = assay: Cellular proliferation/cytotoxicity assay (Alamar Blue), OvCAR3 cells; assay type: cell-based; details: Homo sapiens, OVCAR-3, 72 h, Alamar Blue (Resazurin), read-out: Anti-proliferative/Cytotoxic activity (OvCAR3 cells)
Description: Viabilities are expressed as % values.

Row | IC50 (phospho-GSK3 (Ser9)) [µM] | IC50 (phospho-Akt (Ser473)) [µM] | SMILES | IC50 (A549 cells) [µM] | IC50 (OvCAR3 cells) [µM]
1 | 1 to 10 | < 1 | Cc1cn2c(-c3ccccc3)c(-c3ccc(CN4CCC(c5nnc(-c6ccccn6)[nH]5)CC4)cc3)nc2s1 [Example 46, 2-methyl-5-phenyl-6-[4-({4-[5-(pyridin-2-yl)-4H-1,2,4-triazol-3-yl]piperidin-1-yl}methyl)phenyl]imidazo[2,1-b][1,3]thiazole] | < 10 | 
2 | 1 to 10 | < 1 | Fc1cc(F)c2nc(-c3ccc(CN4CCC(c5nnc(-c6ccccn6)[nH]5)CC4)cc3)c(-c3ccccc3)n2c1 [Example 44, 6,8-Difluoro-3-phenyl-2-{4-[4-(5-pyridin-2-yl-4H-[1,2,4]triazol-3-yl)-piperidin-1-ylmethyl]-phenyl}-imidazo[1,2-a]pyridine] | > 10 | < 10
3 | > 10 |  | c1ccc(-c2nc(C3CCN(Cc4ccc(-c5nc6sccn6c5-c5nccs5)cc4)CC3)n[nH]2)nc1 [Example 42, 6-(4-{[4-(5-pyridin-2-yl-1,2,4-triazol-3-yl)piperidin-1-yl]methyl}phenyl)-5-(1,3-thiazol-2-yl)imidazo[2,1-b][1,3]thiazole] | < 10 | < 10
4 | 1 to 10 |  | Fc1ccccc1-c1c(-c2ccc(CN3CCC(c4n[nH]c(-c5ccccn5)n4)CC3)cc2)nc2ncccn12 [Example 41, 3-(2-fluorophenyl)-2-(4-{[4-(5-pyridin-2-yl-1,2,4-triazol-3-yl)piperidin-1-yl]methyl}phenyl)imidazo[1,2-a]pyrimidine] | > 10 | < 10
